From ChEMBL document CHEMBL1201862, “PubChem BioAssay data set” (2004)
Active and inactive are the calls of the source. Cut-off read from the data, not from the text of the source, for most assays here: actives have a measured IC50 and inactives only a lower limit.

Key:
[1] = target: Phosphomannomutase 2 (Homo sapiens, UniProt O15305); assay: Counter screen SAR assay for PMM2 inhibitors via a fluorescence intensity assay. [Related pubchem assays (depositor defined):AID1545, AID1574]
[2] = target: T1, Mannose-6-phosphate isomerase (Homo sapiens, UniProt P34949); assay: PMI enzyme inhibitors, confirmation, biochemical, fluorescence intensity (AID 1535)
T1 sequence (P34949 whole entry): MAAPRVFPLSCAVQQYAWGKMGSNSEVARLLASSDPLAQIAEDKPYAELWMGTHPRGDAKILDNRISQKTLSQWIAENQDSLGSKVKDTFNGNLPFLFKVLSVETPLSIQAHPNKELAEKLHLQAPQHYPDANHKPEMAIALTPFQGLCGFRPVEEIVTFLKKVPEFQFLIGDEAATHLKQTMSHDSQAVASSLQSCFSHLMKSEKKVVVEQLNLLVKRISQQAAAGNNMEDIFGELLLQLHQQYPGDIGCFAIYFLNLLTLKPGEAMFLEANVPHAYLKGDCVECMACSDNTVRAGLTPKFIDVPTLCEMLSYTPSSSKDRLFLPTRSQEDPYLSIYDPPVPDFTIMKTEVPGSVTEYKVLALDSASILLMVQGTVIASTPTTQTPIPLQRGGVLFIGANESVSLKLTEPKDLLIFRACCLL

[3] = target: T2, Tyrosine-protein phosphatase non-receptor type 22 (Homo sapiens, UniProt Q9Y2R2); assay: LYP (PTPN22) phosphatase inhibitor potency, SAR follow-up, biochemical, pCAP fluorogenic substrate, fluorescence, set 3 (AID 449727); type: functional
T2 sequence (Q9Y2R2 whole entry): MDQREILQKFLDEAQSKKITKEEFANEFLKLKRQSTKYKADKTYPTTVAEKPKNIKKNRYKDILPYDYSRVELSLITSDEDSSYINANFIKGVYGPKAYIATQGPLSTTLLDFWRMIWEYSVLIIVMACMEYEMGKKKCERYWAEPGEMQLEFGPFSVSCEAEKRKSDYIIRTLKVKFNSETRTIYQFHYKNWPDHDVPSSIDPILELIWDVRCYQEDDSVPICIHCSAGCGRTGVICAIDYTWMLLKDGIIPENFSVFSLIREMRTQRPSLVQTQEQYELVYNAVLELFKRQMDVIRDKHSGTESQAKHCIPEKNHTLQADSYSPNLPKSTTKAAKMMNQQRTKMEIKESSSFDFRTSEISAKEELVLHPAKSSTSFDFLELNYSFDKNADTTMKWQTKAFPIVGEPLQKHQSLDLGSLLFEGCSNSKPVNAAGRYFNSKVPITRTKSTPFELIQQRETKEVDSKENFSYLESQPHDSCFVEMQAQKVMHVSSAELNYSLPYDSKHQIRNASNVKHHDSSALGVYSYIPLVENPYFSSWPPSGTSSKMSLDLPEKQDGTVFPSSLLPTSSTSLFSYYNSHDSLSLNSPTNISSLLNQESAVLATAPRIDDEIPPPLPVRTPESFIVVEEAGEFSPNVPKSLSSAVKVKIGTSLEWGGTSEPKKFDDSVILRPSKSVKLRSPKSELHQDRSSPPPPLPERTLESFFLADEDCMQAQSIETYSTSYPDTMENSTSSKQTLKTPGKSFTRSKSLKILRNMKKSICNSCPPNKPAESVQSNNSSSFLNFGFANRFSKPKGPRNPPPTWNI

[4] = target: T2, Tyrosine-protein phosphatase non-receptor type 22; assay: SAR LYP1 Fluorescent Assay using OMFP substrate for In Vitro dose response studies - Set 3. [Related pubchem assays (depositor defined):AID1779, AID1784, AID2140, AID2686]; type: functional
[5] = target: G-protein coupled receptor 55 (Homo sapiens, UniProt Q9Y2T6); assay: GPR55 antagonists, SAR follow-up, counter-screen for GPR35 antagonist project, imaging, image-based (AID 2397); type: functional
[6] = target: Tyrosine-protein phosphatase non-receptor type 12 (Homo sapiens, UniProt Q05209); assay: SAR Selectivity Analysis of small molecule inhibitors of PEST using pCAP in a fluorescence assay. [Related pubchem assays (depositor defined):AID1779, AID1784, AID2135]; type: functional
Tyrosine-protein phosphatase non-receptor type 12, sequence (Q05209 whole entry): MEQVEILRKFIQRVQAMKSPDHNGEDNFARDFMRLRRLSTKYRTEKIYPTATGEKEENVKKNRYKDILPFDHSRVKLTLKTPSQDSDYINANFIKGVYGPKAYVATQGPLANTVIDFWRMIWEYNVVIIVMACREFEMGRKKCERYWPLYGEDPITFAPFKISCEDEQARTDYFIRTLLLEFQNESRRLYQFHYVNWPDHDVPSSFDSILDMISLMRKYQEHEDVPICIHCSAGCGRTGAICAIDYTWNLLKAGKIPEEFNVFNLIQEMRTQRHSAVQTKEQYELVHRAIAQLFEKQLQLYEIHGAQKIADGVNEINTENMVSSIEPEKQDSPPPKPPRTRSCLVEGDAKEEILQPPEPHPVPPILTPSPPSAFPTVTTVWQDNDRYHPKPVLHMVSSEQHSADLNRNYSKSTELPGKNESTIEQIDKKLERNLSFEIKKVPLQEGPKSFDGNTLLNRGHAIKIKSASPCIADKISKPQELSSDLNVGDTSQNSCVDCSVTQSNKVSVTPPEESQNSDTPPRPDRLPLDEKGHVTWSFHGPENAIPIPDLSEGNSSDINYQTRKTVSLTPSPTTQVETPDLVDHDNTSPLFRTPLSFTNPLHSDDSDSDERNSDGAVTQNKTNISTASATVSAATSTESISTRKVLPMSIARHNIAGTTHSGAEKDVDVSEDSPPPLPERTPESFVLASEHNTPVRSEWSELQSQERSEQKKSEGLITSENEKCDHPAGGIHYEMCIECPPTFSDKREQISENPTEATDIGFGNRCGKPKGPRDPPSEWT

Phosphomannomutase 2, sequence (O15305 whole entry): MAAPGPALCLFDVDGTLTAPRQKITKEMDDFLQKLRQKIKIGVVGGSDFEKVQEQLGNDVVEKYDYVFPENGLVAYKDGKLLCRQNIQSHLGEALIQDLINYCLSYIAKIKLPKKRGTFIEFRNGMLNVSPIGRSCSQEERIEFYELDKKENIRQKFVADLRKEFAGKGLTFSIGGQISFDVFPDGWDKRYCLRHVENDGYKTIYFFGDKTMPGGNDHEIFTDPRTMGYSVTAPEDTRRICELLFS
G-protein coupled receptor 55, sequence (Q9Y2T6 whole entry): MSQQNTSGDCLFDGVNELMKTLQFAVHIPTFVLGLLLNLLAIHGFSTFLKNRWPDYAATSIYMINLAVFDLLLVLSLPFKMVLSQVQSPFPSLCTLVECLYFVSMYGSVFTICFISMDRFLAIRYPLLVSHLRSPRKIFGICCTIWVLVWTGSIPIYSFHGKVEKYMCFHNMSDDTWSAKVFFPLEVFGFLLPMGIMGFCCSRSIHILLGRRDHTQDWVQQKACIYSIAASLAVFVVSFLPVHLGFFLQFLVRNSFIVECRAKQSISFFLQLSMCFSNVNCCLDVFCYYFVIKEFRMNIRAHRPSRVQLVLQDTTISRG

| SMILES | IC50 [1] | IC50 [2] | IC50 [3] | IC50 [4] | IC50 [5] | IC50 [6] |
| --- | --- | --- | --- | --- | --- | --- |
| OCc1ccccc1/N=c1\ssnc1Cl | > 100 µM (inactive) | 35.8 µM (active) |  |  |  |  |
| CCOC(=O)c1ccc(NC(=O)CCCN2C(=O)/C(=C/c3ccccc3)SC2=S)cc1 |  |  | > 100 µM (inactive) | > 100 µM (inactive) | > 32 µM (inactive) | 94.2 µM (active) |
